Laboratory results published in patent publication US8962596B2 (Array BioPharma Inc., priority 2010, dated 2015).

Tests used:
Format in all cases: biochemical
Human Tyk2 kinase domain = target: T1, Human Tyk2 kinase domain (Homo sapiens, UniProt P29597); assay: Tyk2 Inhibition Assay (Omnia kinase fluorescence peptide substrate assay); settings: averaged IC50 ranges; assay of Example A; 10 μM (Km app) or 1 mM ATP, 2 nM Tyk2
T1 construct: comprising amino acids 886 to 1187 with 10 additional histidine residues; 10xHis (histidine tag) (C, cleaved yes); made in house
T1 sequence (P29597 886-1187): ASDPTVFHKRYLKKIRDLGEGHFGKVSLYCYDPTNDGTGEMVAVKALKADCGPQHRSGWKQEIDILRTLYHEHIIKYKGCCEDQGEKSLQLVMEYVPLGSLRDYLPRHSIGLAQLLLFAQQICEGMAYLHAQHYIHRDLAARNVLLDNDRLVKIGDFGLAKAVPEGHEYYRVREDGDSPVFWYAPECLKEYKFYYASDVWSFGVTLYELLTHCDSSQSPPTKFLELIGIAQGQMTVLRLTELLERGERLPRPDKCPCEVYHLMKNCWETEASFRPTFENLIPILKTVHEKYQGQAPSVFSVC
Method in brief: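 2 nM His-tag-cleaved kinase domain (aa 886–1187) with 8 μM Omnia Y12 peptide, 10 μM (Km app) or 1 mM ATP, pH 7.4 HEPES/10 mM MgCl2, 2% DMSO. Fluorescence (ex 360/em 485 nm) every 50 s for 45 min; IC50 from 4-parameter fit of POC, top dose 10 μM.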

JAK1 = target: T2, JAK1 (Homo sapiens, UniProt P23458); assay: JAK1 Inhibition Assay (Omnia kinase fluorescence peptide substrate assay); settings: averaged IC50 ranges; assay of Example B; 40 μM (Km app) or 1 mM ATP, 15 nM JAK1
T2 construct: purchased Invitrogen Corporation, Carlsbad, Calif; PV4775
T2 sequence (P23458 whole entry): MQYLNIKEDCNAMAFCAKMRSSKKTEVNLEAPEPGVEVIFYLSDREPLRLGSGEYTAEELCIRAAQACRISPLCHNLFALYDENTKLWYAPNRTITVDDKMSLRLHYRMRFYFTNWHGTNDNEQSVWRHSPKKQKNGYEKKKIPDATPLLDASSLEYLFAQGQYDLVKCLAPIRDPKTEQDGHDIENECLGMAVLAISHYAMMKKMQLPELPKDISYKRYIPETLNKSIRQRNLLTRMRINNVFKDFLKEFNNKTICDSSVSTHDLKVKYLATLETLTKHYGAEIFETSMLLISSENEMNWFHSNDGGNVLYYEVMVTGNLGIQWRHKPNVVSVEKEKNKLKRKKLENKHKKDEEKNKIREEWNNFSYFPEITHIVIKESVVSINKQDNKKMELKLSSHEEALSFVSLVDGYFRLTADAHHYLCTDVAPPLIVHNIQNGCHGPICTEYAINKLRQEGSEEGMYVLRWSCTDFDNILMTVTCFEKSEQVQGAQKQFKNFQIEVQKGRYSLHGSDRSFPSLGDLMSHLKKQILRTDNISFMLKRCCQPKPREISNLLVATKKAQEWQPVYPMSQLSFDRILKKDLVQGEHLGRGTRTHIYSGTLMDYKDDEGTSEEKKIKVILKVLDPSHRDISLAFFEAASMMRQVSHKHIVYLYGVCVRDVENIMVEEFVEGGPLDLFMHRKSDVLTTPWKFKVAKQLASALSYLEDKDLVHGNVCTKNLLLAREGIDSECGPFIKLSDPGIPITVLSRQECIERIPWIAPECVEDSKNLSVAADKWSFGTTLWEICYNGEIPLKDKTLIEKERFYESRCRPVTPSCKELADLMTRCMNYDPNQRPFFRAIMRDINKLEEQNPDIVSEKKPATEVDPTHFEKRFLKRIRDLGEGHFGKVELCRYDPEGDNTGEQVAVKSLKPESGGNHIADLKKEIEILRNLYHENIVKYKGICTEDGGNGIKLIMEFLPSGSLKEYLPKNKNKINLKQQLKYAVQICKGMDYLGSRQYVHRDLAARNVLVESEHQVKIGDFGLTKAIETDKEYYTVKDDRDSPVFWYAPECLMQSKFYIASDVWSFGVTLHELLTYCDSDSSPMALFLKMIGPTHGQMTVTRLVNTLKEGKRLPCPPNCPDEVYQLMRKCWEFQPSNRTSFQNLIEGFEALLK

JAK2 = target: T3, JAK2 (Homo sapiens, UniProt O60674); assay: JAK2 Inhibition Assay (Omnia kinase fluorescence peptide substrate assay); settings: averaged IC50 ranges; assay of Example C; 25 μM (Km app) or 1 mM ATP, 5 nM JAK2
T3 construct: purchased Invitrogen Corporation, Carlsbad, Calif; PV4288
T3 sequence (O60674 whole entry): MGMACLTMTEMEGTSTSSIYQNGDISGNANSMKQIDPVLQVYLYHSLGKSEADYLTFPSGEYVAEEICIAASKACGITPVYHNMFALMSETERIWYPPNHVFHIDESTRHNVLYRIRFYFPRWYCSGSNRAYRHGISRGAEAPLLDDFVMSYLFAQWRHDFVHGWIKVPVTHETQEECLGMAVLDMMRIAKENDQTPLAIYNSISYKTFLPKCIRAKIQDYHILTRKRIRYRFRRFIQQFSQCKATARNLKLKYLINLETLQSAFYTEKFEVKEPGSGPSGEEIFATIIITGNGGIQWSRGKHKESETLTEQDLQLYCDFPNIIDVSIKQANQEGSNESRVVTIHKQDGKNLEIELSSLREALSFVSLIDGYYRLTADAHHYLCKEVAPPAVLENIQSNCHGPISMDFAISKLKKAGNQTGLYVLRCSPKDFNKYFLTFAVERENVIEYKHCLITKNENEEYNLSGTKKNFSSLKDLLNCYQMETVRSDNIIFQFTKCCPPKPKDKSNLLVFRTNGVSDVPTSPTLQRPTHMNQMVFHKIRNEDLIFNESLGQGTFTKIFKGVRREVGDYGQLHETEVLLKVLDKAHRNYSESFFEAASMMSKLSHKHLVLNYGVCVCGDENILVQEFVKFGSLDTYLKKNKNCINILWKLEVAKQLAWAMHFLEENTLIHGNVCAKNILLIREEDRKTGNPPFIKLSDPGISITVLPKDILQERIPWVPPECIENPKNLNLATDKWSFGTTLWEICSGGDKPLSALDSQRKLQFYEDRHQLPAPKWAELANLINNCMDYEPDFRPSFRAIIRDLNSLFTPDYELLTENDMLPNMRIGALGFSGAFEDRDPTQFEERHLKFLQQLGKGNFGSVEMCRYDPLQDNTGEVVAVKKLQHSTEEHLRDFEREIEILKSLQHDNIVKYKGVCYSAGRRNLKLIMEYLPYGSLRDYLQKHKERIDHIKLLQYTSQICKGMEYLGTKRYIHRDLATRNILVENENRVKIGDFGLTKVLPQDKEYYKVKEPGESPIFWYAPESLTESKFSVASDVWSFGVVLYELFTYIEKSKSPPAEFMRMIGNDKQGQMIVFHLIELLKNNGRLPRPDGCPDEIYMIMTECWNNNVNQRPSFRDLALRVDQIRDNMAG
Method in brief: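 5 nM JAK2 phosphorylated 10 μM Omnia Y7 peptide with ATP at 25 μM (Km app) or 1 mM, in 25 mM HEPES pH 7.4, 10 mM MgCl2, 0.01% Triton X-100, 1 mM DTT, 2% DMSO. Fluorescence (360/485 nm) was read every 50 s for 45 min. 10-point 3-fold series from 10 μM; POC versus uninhibited and background controls, 4-parameter logistic IC50.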

JAK3 = target: T4, JAK3 (Homo sapiens, UniProt P52333); assay: JAK3 Inhibition Assay (Omnia kinase fluorescence peptide substrate assay); settings: averaged IC50 ranges; assay of Example D; 10 μM (Km app) or 1 mM ATP, 2.5 nM JAK3
T4 construct: purchased Invitrogen Corporation, Carlsbad, Calif; PV4080
T4 sequence (P52333 1-1124): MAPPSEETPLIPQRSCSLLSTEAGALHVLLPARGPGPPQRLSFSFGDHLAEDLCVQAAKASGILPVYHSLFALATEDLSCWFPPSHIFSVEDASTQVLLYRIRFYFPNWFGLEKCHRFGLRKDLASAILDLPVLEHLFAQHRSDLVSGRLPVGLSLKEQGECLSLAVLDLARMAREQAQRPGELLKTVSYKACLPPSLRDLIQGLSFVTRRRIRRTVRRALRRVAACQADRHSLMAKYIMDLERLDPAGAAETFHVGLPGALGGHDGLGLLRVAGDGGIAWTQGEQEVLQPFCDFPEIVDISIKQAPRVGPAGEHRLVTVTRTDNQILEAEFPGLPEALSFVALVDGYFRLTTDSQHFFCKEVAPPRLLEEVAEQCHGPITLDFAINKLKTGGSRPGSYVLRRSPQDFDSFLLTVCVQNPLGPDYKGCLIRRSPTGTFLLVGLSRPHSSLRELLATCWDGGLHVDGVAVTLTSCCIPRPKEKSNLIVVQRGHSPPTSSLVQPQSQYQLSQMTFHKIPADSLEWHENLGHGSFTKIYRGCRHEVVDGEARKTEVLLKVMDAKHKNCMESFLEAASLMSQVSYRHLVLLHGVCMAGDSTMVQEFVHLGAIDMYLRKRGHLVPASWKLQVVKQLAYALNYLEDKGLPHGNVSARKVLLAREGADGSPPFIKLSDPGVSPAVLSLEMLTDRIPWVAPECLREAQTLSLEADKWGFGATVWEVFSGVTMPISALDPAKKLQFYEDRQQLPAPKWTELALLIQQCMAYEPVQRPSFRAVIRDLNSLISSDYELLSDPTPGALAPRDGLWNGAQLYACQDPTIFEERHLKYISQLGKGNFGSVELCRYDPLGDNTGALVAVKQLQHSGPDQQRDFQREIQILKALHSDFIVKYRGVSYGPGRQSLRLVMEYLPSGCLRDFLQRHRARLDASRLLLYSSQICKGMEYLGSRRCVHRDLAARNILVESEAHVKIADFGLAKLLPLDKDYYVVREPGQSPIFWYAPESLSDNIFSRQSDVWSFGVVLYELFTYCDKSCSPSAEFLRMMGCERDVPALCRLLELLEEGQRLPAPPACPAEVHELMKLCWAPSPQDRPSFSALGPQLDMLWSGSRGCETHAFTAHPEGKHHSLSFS
Method in brief: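 Kinase at 2.5 nM with 10 µM Omnia Y7 peptide and 10 µM (Km app) or 1 mM ATP in 25 mM HEPES pH 7.4, 10 mM MgCl2, 1 mM DTT, 0.01% Triton X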

IC50 (Human Tyk2 kinase domain)	IC50 (JAK1)	IC50 (JAK2)	IC50 (JAK3)	SMILES
0.01 to 0.1 µM	> 1 µM	0.1 to 1 µM	> 1 µM	Cc1nn(C(CC#N)C2CC2)cc1-c1nc(-c2cnn(C)c2)cc2nccn12 (stereo not shown) [Example 109, 3-Cyclopropyl-3-(3-methyl-4-(7-(1-methyl-1H-pyrazol-4-yl)imidazo[1,2-c]pyrimidin-5-yl)-1H-pyrazol-1-yl)propanenitrile]
0.01 to 0.1 µM	0.1 to 1 µM	0.1 to 1 µM	> 1 µM	Cc1ncc(-c2cc3nccn3c(-c3cnn(C4(CC#N)CN(CC(F)(F)F)C4)c3)n2)s1 [Example 102, 2-(3-(4-(7-(2-Methylthiazol-5-yl)imidazo[1,2-c]pyrimidin-5-yl)-1H-pyrazol-1-yl)-1-(2,2,2-trifluoroethyl)azetidin-3-yl)acetonitrile]
< 0.01 µM	< 0.01 µM	< 0.01 µM	0.1 to 1 µM	N#CCC(C1CCCC1)n1cc(-c2nc(-c3ccc(N4CCOCC4)cc3)cc3nccn23)cn1 (single isomer, unassigned) [Example 115, 3-cyclopentyl-3-(4-(7-(4-morpholinophenyl)imidazo[1,2-c]pyrimidin-5-yl)-1H-pyrazol-1-yl)propanenitrile]
0.1 to 1 µM	> 1 µM	> 1 µM	> 1 µM	N#CCC1(n2cc(-c3nc(C4CC4)cc4nccn34)cn2)CN(CC(F)(F)F)C1 [Example 149, 2-(3-(4-(7-cyclopropylimidazo[1,2-c]pyrimidin-5-yl)-1H-pyrazol-1-yl)-1-(2,2,2-trifluoroethyl)azetidin-3-yl)acetonitrile]

Continued, compound first:

SMILES	IC50 (Human Tyk2 kinase domain)	IC50 (JAK1)	IC50 (JAK2)	IC50 (JAK3)
Cn1cc(-c2cc3nccn3c(-c3cnn(C(CC#N)c4ccncc4)c3)n2)cn1 (stereo not shown) [Example 8, 3-(4-(7-(1-methyl-1H-pyrazol-4-yl)imidazo[1,2-c]pyrimidin-5-yl)-1H-pyrazol-1-yl)-3-(pyridin-4-yl)propanenitrile]	0.01 to 0.1 µM	0.1 to 1 µM	0.01 to 0.1 µM	> 1 µM
Cn1cc(-c2cc3nccn3c(-c3cnn(C4(CC#N)CN(CCCF)C4)c3)n2)cn1 [Example 74, 2-(1-(3-fluoropropyl)-3-(4-(7-(1-methyl-1H-pyrazol-4-yl)imidazo[1,2-c]pyrimidin-5-yl)-1H-pyrazol-1-yl)azetidin-3-yl)acetonitrile]	< 0.01 µM	0.1 to 1 µM	0.1 to 1 µM	> 1 µM
Cn1cc(-c2cc3nccn3c(-c3cnn(C4(CC#N)CN(C(=O)OC(C)(C)C)C4)c3)n2)cn1 [Example 61, Tert-butyl 3-(cyanomethyl)-3-(4-(7-(1-methyl-1H-pyrazol-4-yl)imidazo[1,2-c]pyrimidin-5-yl)-1H-pyrazol-1-yl)azetidine-1-carboxylate]	0.1 to 1 µM	> 1 µM	0.1 to 1 µM	> 1 µM
N#CCC(C1CC1)n1cc(-c2nc(-c3ccc4c(c3)CCNC4)cc3nccn23)cn1 (stereo not shown) [Example 52, 3-Cyclopropyl-3-(4-(7-(1,2,3,4-tetrahydroisoquinolin-6-yl)imidazo[1,2-c]pyrimidin-5-yl)-1H-pyrazol-1-yl)propanenitrile]	0.01 to 0.1 µM	0.01 to 0.1 µM	0.01 to 0.1 µM	0.1 to 1 µM
Cn1cc(-c2cc3nccn3c(-c3cnn(C4(CC#N)CN(S(C)(=O)=O)C4)c3)n2)cn1 [Example 92, 2-(3-(4-(7-(1-methyl-1H-pyrazol-4-yl)imidazo[1,2-c]pyrimidin-5-yl)-1H-pyrazol-1-yl)-1-(methylsulfonyl)azetidin-3-yl)acetonitrile]	< 0.01 µM	0.1 to 1 µM	0.01 to 0.1 µM	> 1 µM
Cn1cc(-c2cc3nccn3c(-c3cnn(C(C)(CC#N)c4ccccc4)c3)n2)cn1 (stereo not shown) [Example 16, 3-(4-(7-(1-methyl-1H-pyrazol-4-yl)imidazo[1,2-c]pyrimidin-5-yl)-1H-pyrazol-1-yl)-3-phenylbutanenitrile]	0.1 to 1 µM	> 1 µM	0.1 to 1 µM	> 1 µM
